Experimental data published in US12338219B2, “Antimalarial agents” (Merck Sharp & Dohme LLC, priority 2019, dated 2025).

Tested on: parasites (ring stage parasites, parasite growth)
Assay: Parasite LDH growth assay (Parasite Assay), antiparasite potency
Assay type: cell-based
Conditions: 72 hours growth, LDH readout
Experimental: Assessing Antiparasite Potency in a Parasite LDH Growth Assay (Parasite Assay) The parasite stock was maintained at […] in RPMI-Hepes media buffered with sodium bicarbonate and supplemented with […]. […] On the day of assay set up, a blood smear of the parasite culture was Giemsa stained and counted. The parasitemia was adjusted to 0.7% rings and the haematocrit was diluted to 2% in RPMI-Hepes media buffered with sodium bicarbonate and supplemented with 500 heat inactivated human serum and 0.5% albumax. 30 ul of diluted parasites are then added into 10 ul of media+compound in pre-prepared Greiner TC assay plates. Parasite assay plates were placed in gassed humidified boxes in single layer and allowed to incubate at 37° C. for 72 hours. After 72 hours growth, assay plates are sealed with parafilm and frozen flat, in single file at −80° C. overnight. On the following day, assay plates are allowed to thaw at room temperature for 4 hours to which an LDH assay is performed to measure parasite growth.

Compound	EC50 (72 h, Table 3)	EC50 (Table 3)	also measured
COCC[C@H]([C@@H]1C[C@H]1C(=O)N[C@@H]1CC(C)(C)Oc2cc(OC(F)(F)F)ccc21)N1C(=N)NC(C)(C)CC1=O [Example 134A]	71 nM		
CC1(C)CC(=O)N(C(c2cccc(C#N)c2)[C@@H]2C[C@H]2C(=O)NC2CC(C)(C)Oc3ccc(F)cc32)C(=N)N1 (stereo partly shown) [Example 53B]		2.1 nM	
CC1(C)CC(=O)N([C@H](c2cccnc2)[C@H]2[C@H](C(=O)N[C@H]3C[C@H](C(F)(F)F)Oc4ccccc43)C2(C)C)C(=N)N1 [Example 43A]	4 nM		
CC1(C)CC(=O)N([C@H](c2cccnc2)[C@@H]2C[C@H]2C(=O)NC2CC(C)(C)Oc3ccc(C(F)(F)F)cc32)C(=N)N1 (single isomer, unassigned) [Example 109A]		2.3 nM	
CCC1(CC)CC(=O)N(C(CC(C)OC)[C@@H]2C[C@H]2C(=O)N[C@H]2CC(C)(C)Oc3ccccc32)C(=N)N1 (single isomer, unassigned) [Example 142B]			EC50 (Table 4 (unit inferred)): 0.7 nM
CCC1(CC)CC(=O)N([C@H](CCOC)[C@@H]2C[C@H]2C(=O)NC2CC(C)(C)Oc3cc(Cl)ccc32)C(=N)N1 (single isomer, unassigned) [Example 147A]			EC50 (Table 4 (unit inferred)): 2.8 nM
CC(C)C1(C)CC(NC(=O)[C@@H]2C[C@H]2[C@@H](c2cccnc2)N2C(=N)NC(C)(C)CC2=O)c2ccccc2O1 (single isomer, unassigned) [Example 81D]		1.3 nM	
COCC[C@H]([C@@H]1C[C@H]1C(=O)N[C@@H]1CC(C)(C)Oc2ccc(C(F)(F)F)cc21)N1C(=N)NC(C)(C)CC1=O [Example 110A]	21 nM		
CCC1(CC)CC(=O)N(C[C@@H]2C[C@H]2C(=O)N[C@@H]2c3ccccc3C[C@H]2O)C(=N)N1 [Example 6B]	269 nM		
COCC[C@H]([C@@H]1C[C@H]1C(=O)N[C@H]1CC(C)(C)Oc2ccc(C)cc21)N1C(=N)NC(C)(C)CC1=O [Example 132]	6.7 nM		
CC1[C@@H](C(c2cccnc2)N2C(=N)NC(C)(C)CC2=O)[C@@H]1C(=O)N[C@H]1C[C@H](C(F)(F)F)Oc2ccccc21 (single isomer, unassigned) [Example 54B]		130 nM	
COCC1(C)CC(NC(=O)[C@@H]2C[C@H]2[C@@H](c2cccnc2)N2C(=N)NC(C)(C)CC2=O)c2ccccc2O1 (single isomer, unassigned) [Example 108A]		70 nM	
CCC1(CC)CC(=O)N(C(CC(C)OC)[C@@H]2C[C@H]2C(=O)N[C@@H]2CC(C)(C)Oc3ccccc32)C(=N)N1 (single isomer, unassigned) [Example 143C]			EC50 (Table 4 (unit inferred)): 57.9 nM
CC1(C)CC(=O)N([C@H](c2cccnc2)[C@@H]2C[C@H]2C(=O)N[C@H]2CC(C)(C)Oc3ccc(Cl)cc32)C(=N)N1 [Example 120]	1 nM		
COCC1(C)CC(NC(=O)[C@@H]2C[C@H]2[C@@H](c2cccnc2)N2C(=N)NC(C)(C)CC2=O)c2ccccc2O1 (single isomer, unassigned) [Example 108B]		3.7 nM	
CC1(C)CC(=O)N(C[C@@H]2C[C@H]2C(=O)N[C@H]2CC(C)(C)Oc3ccc(Cl)cc32)C(=N)N1 [Example 95]	110 nM		
CCC1(CC)CC(=O)N([C@@H](c2cccnc2)[C@H]2[C@H](C(=O)N[C@H]3CC(C)(C)Oc4ccccc43)C2(C)C)C(=N)N1 [Example 48B]	7.4 nM		
COc1ccc([C@H]([C@@H]2C[C@H]2C(=O)N[C@H]2CC(C)(C)Oc3ccccc32)N2C(=N)NC(C)(C)CC2=O)cn1 [Example 38]	6.5 nM		
COCC[C@H]([C@@H]1C[C@H]1C(=O)N[C@@H]1CC(C)(C)Oc2cc(C)ccc21)N1C(=N)NC(C)(C)CC1=O [Example 83B]	26 nM		
CC1(C)CC(=O)N([C@H](c2cccnc2)[C@@H]2C[C@H]2C(=O)NC2CC(C)(C)Oc3ccc(F)cc32)C(=N)N1 (single isomer, unassigned) [Example 98A]		0.9 nM	
CCC1C[C@H](NC(=O)[C@@H]2C[C@H]2CN2C(=N)NC(C)(C)CC2=O)c2ccccc2O1 (single isomer, unassigned) [Example 133B]		100 nM	
COc1cccc2c1C(NC(=O)[C@@H]1C[C@H]1[C@@H](c1cccnc1)N1C(=N)NC(C)(C)CC1=O)CC(C)(C)O2 (stereo partly shown) [Example 96B]		3.3 nM	
COCC[C@H]([C@@H]1C[C@H]1C(=O)NC1CC(C)(C(C)C)Oc2ccccc21)N1C(=N)NC(C)(C)CC1=O (single isomer, unassigned) [Example 80C]		14 nM	
CCC1(CC)CC(=O)N(C[C@@H]2C(C)[C@H]2C(=O)N[C@@H]2c3ccccc3OC(C)(C)[C@H]2O)C(=N)N1 (single isomer, unassigned) [Example 30B]		7.7 nM	
CCC1(CC)CC(=O)N([C@H](c2cccnc2)[C@@H]2C[C@H]2C(=O)N[C@H]2C[C@H](C(F)(F)F)Oc3ccccc32)C(=N)N1 [Example 12]	0.9 nM		
CCC1(C)CC(NC(=O)[C@@H]2C[C@H]2[C@@H](CCOC)N2C(=N)NC(C)(C)CC2=O)c2ccccc2O1 (single isomer, unassigned) [Example 75B]		7.5 nM	

Compound	EC50 (72 h, Table 3)	EC50 (Table 3)	also measured
COCC[C@H]([C@@H]1C[C@H]1C(=O)NC1CC(C)(COC)Oc2ccccc21)N1C(=N)NC(C)(C)CC1=O (single isomer, unassigned) [Example 82D]		27 nM	
CC1(C)CC(=O)N([C@H](c2cccnc2)[C@@H]2C[C@H]2C(=O)NC2CC(C)(C)Oc3c(Cl)cccc32)C(=N)N1 (stereo partly shown) [Example 121A]	2.5 nM		
COCC1(C)CC(NC(=O)[C@@H]2C[C@H]2[C@@H](c2cccnc2)N2C(=N)NC(C)(C)CC2=O)c2ccccc2O1 (single isomer, unassigned) [Example 108C]		6 nM	
CCC1(CC)CC(=O)N([C@H](CCOC)[C@@H]2C[C@H]2C(=O)N[C@H]2CC(C)(C)Oc3ccc(Cl)cc32)C(=N)N1 [Example 146]			EC50 (72 h, Table 4 (unit inferred)): 1.1 nM
CCC1C[C@H](NC(=O)[C@@H]2C[C@H]2CN2C(=N)NC(C)(C)CC2=O)c2ccccc2O1 (single isomer, unassigned) [Example 133A]		210 nM	
COCC[C@H]([C@@H]1C[C@H]1C(=O)NC1CC(C)(C)Oc2c(Cl)cc(Cl)cc21)N1C(=N)NC(C)(C)CC1=O (stereo partly shown) [Example 106A]	7.4 nM		
COCC[C@H]([C@@H]1C[C@H]1C(=O)NC1CC(C)(COC)Oc2ccccc21)N1C(=N)NC(C)(C)CC1=O (single isomer, unassigned) [Example 82B]		57 nM	
CCC1(CC)CC(=O)N(C[C@@H]2C(C)[C@H]2C(=O)N[C@H]2C[C@H](C(F)(F)F)Oc3ccccc32)C(=N)N1 (stereo partly shown) [Example 28B]		14 nM	
CCC1(CC)CC(=O)N(CC2C(C(=O)N[C@H]3C[C@H](C(F)(F)F)Oc4ccccc43)C2(F)F)C(=N)N1 (single isomer, unassigned) [Example 17B]		20 nM	
CC(C)C1(C)CC(NC(=O)[C@@H]2C[C@H]2[C@@H](c2cccnc2)N2C(=N)NC(C)(C)CC2=O)c2ccccc2O1 (single isomer, unassigned) [Example 81A]		2.7 nM	
COCC[C@H]([C@@H]1C[C@H]1C(=O)N[C@H]1CC(C)(C)Oc2ccccc21)N1C(=N)N[C@](C)(C(C)C)CC1=O [Example 20]	5.3 nM		
CC[C@]1(C)CC(=O)N([C@H](c2cncc(F)c2)[C@@H]2C[C@H]2C(=O)N[C@@H]2c3ccccc3OCC2(C)C)C(=N)N1 [Example 102A]	0.8 nM		
CCC1(CC)CC(=O)N(C[C@@H]2C(C)[C@H]2C(=O)N[C@@H]2c3ccccc3OCC2(C)O)C(=N)N1 (single isomer, unassigned) [Example 35A]		85 nM	
CCC1(CC)CC(=O)N([C@H](CCOC)[C@@H]2C[C@H]2C(=O)NC2CC(C)(C)Oc3cc(Cl)ccc32)C(=N)N1 (single isomer, unassigned) [Example 147B]			EC50 (Table 4 (unit inferred)): 8.2 nM
CCC1(CC)CC(=O)N(C[C@H]2[C@H](C(=O)N[C@H]3CC(C)(C)Oc4ccccc43)C2(C)C)C(=N)N1 [Example 34]	286 nM		
COCC[C@H]([C@@H]1C[C@H]1C(=O)NC1CC2(CCC2)Oc2ccccc21)N1C(=N)NC(C)(C)CC1=O (stereo partly shown) [Example 131A]	6.8 nM		
CCC1(CC)CC(=O)N(C[C@H]2C[C@@H]2C(=O)N[C@@H]2c3ccccc3C[C@H]2O)C(=N)N1 [Example 6A]	188 nM		
COCC[C@H]([C@@H]1C[C@H]1C(=O)N[C@@H]1CC(C)(C)Oc2cc(OC)ccc21)N1C(=N)NC(C)(C)CC1=O [Example 70A]	77 nM		
COc1ccc([C@H]([C@@H]2C[C@H]2C(=O)N[C@H]2C[C@H](C(F)(F)F)Oc3ccccc32)N2C(=N)NC(C)(C)CC2=O)cn1 [Example 37]	1.2 nM		
CC1(C)CC(=O)N([C@H](c2cccnc2)[C@@H]2C[C@H]2C(=O)NC2CC(C)(C)Oc3cc(F)ccc32)C(=N)N1 (stereo partly shown) [Example 77B]		2.3 nM	
CCC1(CC)CC(=O)N([C@H](CCOC)[C@@H]2C[C@H]2C(=O)N[C@@H]2c3ccccc3OC(C)(C)[C@H]2O)C(=N)N1 [Example 145]			EC50 (72 h, Table 4 (unit inferred)): 8.4 nM
CC1C[C@H](NC(=O)[C@@H]2C[C@H]2CN2C(=N)NC(C)(C)CC2=O)c2cc(F)ccc2O1 (stereo partly shown) [Example 139B]		130 nM	
COCC[C@H]([C@@H]1C[C@H]1C(=O)N[C@@H]1CC(C)(C)Oc2cc(C)c(Cl)cc21)N1C(=N)NC(C)(C)CC1=O [Example 137A]	12 nM		
Cc1ccc2c(c1)OC(C)(C)C[C@H]2NC(=O)[C@@H]1C[C@H]1[C@@H](c1cccnc1)N1C(=N)NC(C)(C)CC1=O [Example 85A]	2.4 nM		
CCC1(CC)CC(=O)N(C[C@H]2C(C(=O)N[C@@H]3c4ccccc4OC(C)(C)[C@H]3O)C2(F)F)C(=N)N1 (stereo partly shown) [Example 18A]	39 nM		
CCC1(CC)CC(=O)N(C(CC(C)OC)[C@@H]2C[C@H]2C(=O)N[C@H]2CC(C)(C)Oc3ccccc32)C(=N)N1 (single isomer, unassigned) [Example 142D]			EC50 (Table 4 (unit inferred)): 115 nM
